# Entries after “also recorded” stand apart in the source; their conditions may differ.
# Experiments:
# Fc region of IgG = conditions: ref [17],[21] (b5); ref [15],[16],[17]; cited from earlier work
# Excerpt: (§1) Nowadays, numerous synthetic peptides are designed to specifically recognize and bind the conserved fragment crystallizable (Fc) region of IgG [18, 19], which is one of the most widely utilized types of antibodies in bioanalytical analysis. The Fc binding peptides made excellent exposure of the fragment antigen binding (Fab) region of IgG and thus maintained an easy approachability to the antigen-binding sites of the immobilized antibodies.
# IgG = conditions: ref [22]; cited from earlier work
# Excerpt: as §1
# [1] = target: heptapeptide HWRGWVC (HC7) coupled to poly(glycidyl methacrylate) nanospheres (PGMA-HC7); test: batch adsorption isotherm (Langmuir fit); bovine IgG 0.4-4 mg/mL added to PGMA-HC7 nanosphere suspension, physiological buffer, 37 °C, 5 min; supernatant IgG read at 280 nm after centrifugation, adsorbed amount by mass balance
substance,measurement,setting,value
HWRGWV [hexapeptide ligand that could specifically recognize the Fc region of the antibody],Fc selectivity relative to protein A / protein G,Fc region of IgG,comparable to protein A but not comparable to protein G; also recorded: comparable to protein A
"HWRGWVC [HC7, heptapeptide ligand HWRGWVC, 95% purity, synthesized by GL Biochem Ltd]",affinity for IgG relative to HWRGWV,IgG,two orders of magnitude stronger
bovine immunoglobulin G (IgG) (antibody),Kd,[1],5.8 µM
